The test system of the test is Kp. Put plainly: AATCC TM 100 antimicrobial test on treated polyester after home launderings. Particulars: for AATCC TM 100, Antimicrobial Test result (Kp - log reduction): 1.5% o.w.f. on polyester.

Each structure is given as a SMILES string.

In the case of `[Na+].[O-][n+]1ccccc1[S-]` [Sodium Pyrithione], the “AATCC TM 100, Antimicrobial Test result (Kp - log reduction)” value reads like this: (1 HL) 0.5 log reduction; (25 HL) 0 log reduction. Besides, the “antimicrobial performance (in words)” value reads like this: (after one cycle of home laundering) “little efficacy”; (after twenty-five home launderings) “did not have antimicrobial performance”.

(Values after patent publication US12742284B2, “Antimicrobial polymer coatings on textiles” (MICROBAN PRODUCTS COMPANY, priority 2022, dated 2023).)
